Experimental data as given in patent US20230233569A1 (Revolution Medicines, Inc., priority 2020, published 2023).
Like-named read-outs stand apart in the source and are kept apart here.

Columns and labels:
[1] = target: KRAS WT (Homo sapiens, UniProt P01116+P62937); test: Disruption of BRAF RBD interaction with Ras (FRET / MOA assay, with Cyclophilin A); assay type: biochemical
Method in brief: (§1)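 First, compounds at a ten-point threefold dilution series (highest final concentration 30 μM) were incubated with nucleotide-loaded K-Ras, Cyclophilin A and BRAF RBD for 3 h at 25 °C. Next, detection antibodies were added for 1.5 h. Finally, IC50 was calculated from TR-FRET ratio decreases against DMSO controls.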

[2] = target: NRAS G12C (Homo sapiens, UniProt P01111+P62937, G12C); test: as above; assay type: biochemical
Sequence of NRAS G12C (P01111 whole entry G12C): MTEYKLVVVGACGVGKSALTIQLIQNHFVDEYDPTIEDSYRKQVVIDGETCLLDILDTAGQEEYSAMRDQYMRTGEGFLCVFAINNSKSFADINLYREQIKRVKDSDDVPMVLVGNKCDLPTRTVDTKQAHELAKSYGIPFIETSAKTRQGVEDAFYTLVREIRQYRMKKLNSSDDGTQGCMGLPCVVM
Sequence of NRAS G12C (P62937 whole entry): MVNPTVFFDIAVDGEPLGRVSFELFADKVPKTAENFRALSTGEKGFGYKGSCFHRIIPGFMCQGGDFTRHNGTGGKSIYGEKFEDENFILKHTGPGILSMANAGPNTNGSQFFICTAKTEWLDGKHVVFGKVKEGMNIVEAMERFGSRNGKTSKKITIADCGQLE

[3] = target: KRAS G12D (Homo sapiens, UniProt P01116+P62937, G12D); test: as above; assay type: biochemical
Sequence of KRAS G12D (P01116 1-169 isoform P01116-2 G12D limits assumed): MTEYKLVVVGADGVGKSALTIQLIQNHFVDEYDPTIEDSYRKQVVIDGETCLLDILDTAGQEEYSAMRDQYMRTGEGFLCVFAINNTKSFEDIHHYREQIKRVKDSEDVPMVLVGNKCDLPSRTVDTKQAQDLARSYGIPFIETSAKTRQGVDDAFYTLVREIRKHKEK
Sequence of KRAS G12D (P62937 whole entry): as the sequence (P62937 whole entry) above
Method in brief: as §1

[4] = target: KRAS G12S (Homo sapiens, UniProt P01116+P62937, G12S); test: as above; assay type: biochemical
Sequence of KRAS G12S (P01116 1-169 isoform P01116-2 G12S limits assumed): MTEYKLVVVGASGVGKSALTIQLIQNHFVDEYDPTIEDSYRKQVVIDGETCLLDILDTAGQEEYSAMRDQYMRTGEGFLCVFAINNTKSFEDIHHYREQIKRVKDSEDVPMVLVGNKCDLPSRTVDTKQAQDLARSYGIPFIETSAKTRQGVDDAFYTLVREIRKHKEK
Sequence of KRAS G12S (P62937 whole entry): as the sequence (P62937 whole entry) above
Method in brief: as §1

[5] = target: KRAS G12V (Homo sapiens, UniProt P01116+P62937, G12V); test: as above; assay type: biochemical
Sequence of KRAS G12V (P01116 1-169 isoform P01116-2 G12V limits assumed): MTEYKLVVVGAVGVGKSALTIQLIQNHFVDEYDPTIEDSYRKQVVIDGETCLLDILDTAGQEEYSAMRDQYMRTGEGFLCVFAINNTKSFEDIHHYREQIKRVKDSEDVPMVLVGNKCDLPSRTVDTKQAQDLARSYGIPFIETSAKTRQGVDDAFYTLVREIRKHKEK
Sequence of KRAS G12V (P62937 whole entry): as the sequence (P62937 whole entry) above
Method in brief: as §1

[6] = target: KRAS G13D (Homo sapiens, UniProt P01116+P62937, G13D); test: as above; assay type: biochemical
Sequence of KRAS G13D (P01116 1-169 isoform P01116-2 G13D limits assumed): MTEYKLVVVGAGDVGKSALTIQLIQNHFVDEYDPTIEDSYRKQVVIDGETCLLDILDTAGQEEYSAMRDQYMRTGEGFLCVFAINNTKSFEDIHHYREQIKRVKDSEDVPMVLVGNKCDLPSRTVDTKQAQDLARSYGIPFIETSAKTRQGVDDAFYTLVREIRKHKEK
Sequence of KRAS G13D (P62937 whole entry): as the sequence (P62937 whole entry) above
Method in brief: as §1

[7] = target: KRAS G12C (Homo sapiens, UniProt P01116+P62937, G12C); test: as above; assay type: biochemical
Sequence of KRAS G12C (P01116 1-169 isoform P01116-2 G12C): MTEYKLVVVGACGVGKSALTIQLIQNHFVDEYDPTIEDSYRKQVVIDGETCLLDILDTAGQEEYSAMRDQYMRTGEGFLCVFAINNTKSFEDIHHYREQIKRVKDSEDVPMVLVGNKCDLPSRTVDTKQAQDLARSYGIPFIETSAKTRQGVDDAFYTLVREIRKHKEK
Sequence of KRAS G12C (P62937 whole entry): as the sequence (P62937 whole entry) above
Method in brief: as §1

[8] = target: KRAS G13C (Homo sapiens, UniProt P01116+P62937, G13C); test: as above; assay type: biochemical
Sequence of KRAS G13C (P01116 1-169 isoform P01116-2 G13C): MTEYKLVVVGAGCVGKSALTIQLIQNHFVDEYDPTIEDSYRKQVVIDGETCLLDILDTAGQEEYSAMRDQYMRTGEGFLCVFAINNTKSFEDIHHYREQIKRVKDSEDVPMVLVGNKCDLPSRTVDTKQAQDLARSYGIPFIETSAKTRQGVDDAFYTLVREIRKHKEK
Sequence of KRAS G13C (P62937 whole entry): as the sequence (P62937 whole entry) above
Method in brief: as §1

[9] = target: NRAS Q61K (Homo sapiens, UniProt P01111+P62937, Q61K); test: as above; assay type: biochemical
Sequence of NRAS Q61K (P01111 whole entry Q61K): as the sequence (P01111 whole entry G12C) above, with C12G, Q61K counted along it
Sequence of NRAS Q61K (P62937 whole entry): as the sequence (P62937 whole entry) above
Method in brief: (§2)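 IC50 reflects compound-driven Ras:Cyclophilin A ternary complex displacing BRAF RBD, read as lowered TR-FRET ratio relative to DMSO after Eu anti-His (10 nM) and APC anti-GST (50 nM) detection for 1.5 h. Prior incubation 3 h, 25° C, with 12.5 nM GMPPNP-loaded Ras, 50 nM BRAF RBD, 25 μM Cyclophilin A; top compound 30 μM.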

[10] = target: NRAS Q61R (Homo sapiens, UniProt P01111+P62937, Q61R); test: as above; assay type: biochemical
Sequence of NRAS Q61R (P01111 whole entry Q61R): as the sequence (P01111 whole entry G12C) above, with C12G, Q61R counted along it
Sequence of NRAS Q61R (P62937 whole entry): as the sequence (P62937 whole entry) above
Method in brief: as §2

[11] = target: NRAS WT (Homo sapiens, UniProt P01111+P62937); test: as above; assay type: biochemical
Sequence of NRAS WT (P01111 whole entry): as the sequence (P01111 whole entry G12C) above, with C12G counted along it
Sequence of NRAS WT (P62937 whole entry): as the sequence (P62937 whole entry) above
Method in brief: as §2

[12] = target: KRAS Q61H (Homo sapiens, UniProt P01116+P62937, Q61H); test: as above; assay type: biochemical
Sequence of KRAS Q61H (P01116 1-169 isoform P01116-2 Q61H limits assumed): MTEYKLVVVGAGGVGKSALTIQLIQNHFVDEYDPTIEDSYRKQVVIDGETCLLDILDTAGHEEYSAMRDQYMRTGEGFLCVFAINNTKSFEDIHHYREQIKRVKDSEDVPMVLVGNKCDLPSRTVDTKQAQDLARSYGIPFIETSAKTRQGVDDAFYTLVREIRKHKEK
Sequence of KRAS Q61H (P62937 whole entry): as the sequence (P62937 whole entry) above
Method in brief: as §2

[13] = test system: NCI-H358 (K-Ras G12C); test: CellTiter-Glo cell viability assay, 5-day treatment; assay type: cell-based; details: Homo sapiens, NCI-H358, 120 h, 5-day treatment; read-out: H358 Cell Viability assay data (K-Ras G12C, IC50)
Method in brief: (§3)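 Compounds were dispensed directly onto seeded cells and incubated for 5 days, then plates were equilibrated to room temperature for about 30 minutes before luminescence reading. Signals were expressed as percent of the mean DMSO control and fitted with a four-parameter logistic curve.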

[14] = test system: Capan-1 (K-Ras G12V); test: as above; assay type: cell-based; details: Homo sapiens, CAPAN-1, 120 h, 5-day treatment; read-out: Capan-1 Cell Viability assay data (K-Ras G12V, IC50)
Method in brief: as §3

[15] = KRAS WT, read-out: KRAS WT FRET data IC50
[16] = NRAS G12C, read-out: NRAS G12C FRET data IC50
[17] = read-out: KRAS G12D FRET data, IC50
[18] = read-out: KRAS G12S FRET data, IC50
[19] = KRAS G12V, read-out: KRAS G12V FRET data IC50
[20] = KRAS G13D, read-out: KRAS G13D FRET data IC50
[21] = read-out: KRAS G12C FRET data, IC50
[22] = read-out: KRAS G13C FRET data, IC50
[23] = NRAS Q61K, read-out: NRAS Q61K FRET data IC50
[24] = NRAS Q61R, read-out: NRAS Q61R FRET data IC50
[25] = NRAS WT, read-out: NRAS WT FRET data IC50
[26] = KRAS Q61H, read-out: KRAS Q61H FRET data IC50

Sequence of KRAS WT (P01116 1-169 isoform P01116-2 limits assumed): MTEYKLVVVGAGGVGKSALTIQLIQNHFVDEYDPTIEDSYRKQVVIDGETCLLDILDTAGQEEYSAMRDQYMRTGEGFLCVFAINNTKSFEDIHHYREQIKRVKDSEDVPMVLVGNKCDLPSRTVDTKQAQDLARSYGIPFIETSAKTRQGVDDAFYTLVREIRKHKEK
Sequence of KRAS WT (P62937 whole entry): as the sequence (P62937 whole entry) above

| Structure (SMILES) | IC50 [1, 15] [nM] | IC50 [2, 16] [nM] | IC50 [3, 17] [nM] | IC50 [4, 18] [nM] | IC50 [5, 19] [nM] | IC50 [6, 20] [nM] | IC50 [7, 21] [nM] | IC50 [8, 22] [nM] | IC50 [9, 23] [nM] | IC50 [10, 24] [nM] | IC50 [11, 25] [nM] | IC50 [12, 26] [nM] | IC50 [13] [nM] | IC50 [14] [nM] | other results |
| --- | --- | --- | --- | --- | --- | --- | --- | --- | --- | --- | --- | --- | --- | --- | --- |
| CCn1c(-c2cccnc2[C@H](C)OC)c2c3cc(ccc31)-c1csc(n1)C[C@H](NC(=O)[C@H](C1CCCC1)N(C)C(=O)N1CCN(C)CC1)C(=O)N1CCC[C@H](N1)C(=O)OCC(C)(C)C2 [Example A525] | 100 to 1000 | 100 to 1000 | 1000 to 10000 | 100 to 1000 | 100 to 1000 | 100 to 1000 | 100 to 1000 | 100 to 1000 | 100 to 1000 | 100 to 1000 | 100 to 1000 | 100 to 1000 | 10 to 100 | 10 to 100 | – |
| CCn1c(-c2cnccc2COC)c2c3cc(ccc31)-c1cc(O)cc(c1)C[C@H](NC(=O)[C@H](C(C)C)N(C)C(=O)[C@H]1CCN(S(C)(=O)=O)C1)C(=O)N1CCC[C@H](N1)C(=O)OCC(C)(C)C2 [Example A24, (2S)—N-[(8S,14S)-22-ethyl-4-hydroxy-21-[4-(methoxymethyl)pyridin-3-yl]-18,18-dimethyl-9,15-dioxo-16-oxa-10,22,28-triazapentacyclo[18.5.2.1^2,6.1^10,14.0^23,27]nonacosa-1(26),2,4,6(29),20,23(27),24-heptaen-8-yl]-2-{1-[(3S)-1-methanesulfonylpyrrolidin-3-yl]-N-methylformamido}-3-methylbutanamide] | – | – | – | – | – | – | – | – | – | – | – | – | 1000 to 10000 | 1000 to 10000 | IC50 ([1]; KRAS WT FRET data IC50, KRAS WT): 100 to 1000 nM; IC50 ([2]; NRAS G12C FRET data IC50, NRAS G12C): 100 to 1000 nM; IC50 ([3]; KRAS G12D FRET data, IC50): 1000 to 10000 nM; IC50 ([4]; KRAS G12S FRET data, IC50): 100 to 1000 nM; IC50 ([5]; KRAS G12V FRET data IC50, KRAS G12V): 100 to 1000 nM; IC50 ([6]; KRAS G13D FRET data IC50, KRAS G13D): 100 to 1000 nM; IC50 ([7]; KRAS G12C FRET data, IC50): 100 to 1000 nM; IC50 ([8]; KRAS G13C FRET data, IC50): 100 to 1000 nM; IC50 ([9]; NRAS Q61K FRET data IC50, NRAS Q61K): 100 to 1000 nM; IC50 ([10]; NRAS Q61R FRET data IC50, NRAS Q61R): 100 to 1000 nM; IC50 ([11]; NRAS WT FRET data IC50, NRAS WT): 100 to 1000 nM; IC50 ([12]; KRAS Q61H FRET data IC50, KRAS Q61H): 10 to 100 nM |
| CCn1c(-c2cnccc2COC)c2c3cc(ccc31)-c1cc(O)cc(c1)C[C@H](NC(=O)[C@H](C(C)C)N1COCC1=O)C(=O)N1CCC[C@H](N1)C(=O)OCC(C)(C)C2 [Example A102] | 100 to 1000 | 100 to 1000 | 100 to 1000 | 100 to 1000 | 100 to 1000 | 100 to 1000 | 100 to 1000 | 10 to 100 | 100 to 1000 | 100 to 1000 | 100 to 1000 | 10 to 100 | 1000 to 10000 | 100 to 1000 | – |
| CCn1c(-c2cccnc2[C@H](C)OC)c2c3cc(ccc31)-c1csc(n1)C[C@H](NC(=O)[C@H](C(C)C)N(C)C(=O)N1CCCC1)C(=O)N1CCC[C@H](N1)C(=O)OCC(C)(C)C2 (atropisomer, axis not shown) [Example A400] | 10 to 100 | 10 to 100 | 100 to 1000 | 10 to 100 | 100 to 1000 | 100 to 1000 | 10 to 100 | 100 to 1000 | 10 to 100 | 10 to 100 | 10 to 100 | 10 to 100 | 10 to 100 | 10 to 100 | – |
| CCn1c(-c2cc(C3CCN(C)CC3)cnc2[C@H](C)OC)c2c3cc(ccc31)-c1csc(n1)C[C@H](NC(=O)[C@H](C(C)C)N(C)C(=O)N(C)C)C(=O)N1CCC[C@H](N1)C(=O)OCC(C)(C)C2 (atropisomer, axis not shown) [Example A484] | 100 to 1000 | 10 to 100 | 100 to 1000 | 100 to 1000 | 100 to 1000 | 100 to 1000 | 10 to 100 | 100 to 1000 | 10 to 100 | 100 to 1000 | 10 to 100 | 10 to 100 | < 10 | < 10 | – |
